Measured values as given in patent US20140357512A1, “HISTONE DEACETYLASE (HDAC) BIOMARKERS IN MULTIPLE MYELOMA” (priority 2013, published 2014).

Tested on: human myeloma cell line MM.1S
Assay: SILAC acetylated-lysine peptide profiling, HDAC inhibitor vs DMSO (light/heavy ratio)
Format: cell-based
Text: An embodiment of the invention comprises utilizing the SILAC method in order to quantitate changes in protein expression between two or more populations of cells. The SILAC method is a technique based on mass spectrometry that detects differences in protein abundance among samples using non-radioactive isotopic labeling. The SILAC method is known in the art, and described in detail in Ong et al., “Stable Isotope Labeling by Amino Acids in Cell Culture, SILAC, as a Simple and Accurate Approach to Expression Proteomics”, Molecular & Cellular Proteomics, vol. 1, pp. 376-386 (2002), which is incorporated herein by reference in its entirety.
Briefly, the SILAC method involves growing two populations of cells in cell culture. The first population of cells is grown in growth media containing normal amino acids (“normal media”). The second population of cells is grown in media lacking a standard essential amino acid (such as lysine), but is then supplemented with a non-radioactive, isotopically labeled form of that essential amino acid (such as lysine labeled with ^13C atoms, rather than normal ^12C atoms), which is called “heavy media”. When the two populations of cells are each growing in the medium, they incorporate the amino acids into all of their proteins. The growth of cells maintained in the heavy media is no different from that in normal media. All peptides containing the heavy amino acids are heavier than their normal counterparts. The cells from each of the two populations of cells are lysed. The lysates from each of the two cell populations are then combined. The combined cell lysates are then analyzed by mass spectrometry. Pairs of chemically identical peptides of different stable isotope composition can be differentiated in a mass spectrometer due to their difference in mass. The ratio of peak intensities in the mass spectrum for such peptide pairs reflects the abundance ratio for the two proteins.
This example describes SILAC studies that were performed to compare the effects of three different HDAC inhibitors (Compound A, Compound B, and tubastatin A) to a control on a human multiple myeloma cell line. The HDAC inhibitors were also compared amongst themselves to determine differences in their effects.
A human myeloma cell line MM.1S was grown using either ^12C (light) or ^13C (heavy) lysine containing culture medium. The “heavy” cells were treated with DMSO as the control, and the “light” cells were treated with a single HDAC inhibitor at 37° C. for 6 hours. The heavy and light cells were lysed, and the lysates were mixed in 1:1 ratio and digested with the protease trypsin. The acetylated lysine containing peptides (due to the action of the HDAC inhibitor) in the digested peptide pool were captured by a non-specific anti-acetylated lysine antibody cocktail (the antibodies identify both light and heavy acetylated peptides), and subjected to mass spectrometry analysis in order to identify thousands of individual peptides.
Thousands of peptides were identified in pairs (^12C and ^13C) due to their known mass differences. The amino acid sequence and quantitative ratio (Light/Heavy) of a given peptide in two differentially treated cell lysates were then determined and annotated with their possible protein (gene) sources.
As stated above, three HDAC inhibitors (Compound A, Compound B, and Tubastatin A) were used. Thus, the SILAC method was performed three times, with a different HDAC inhibitor compared to a control each time. Accordingly, there are three pairs of quantitative data in the table below, i.e., Compound A:DMSO, Compound B:DMSO, and Tubastatin A:DMSO. A cut-off of 1.30 fold of change (increase or decrease) was then used to determine “changed” or “+” in the table, and any peptides with a fold of change less than 1.3 fold were determined to be “unchanged” or “0” in the table. Those peptides that were not identified were marked as “NA” in the table. […]

`O=C(CCCCCCNC(=O)c1cnc(N(c2ccccc2)c2ccccc2)nc1)NO` [Compound A, 2-(diphenylamino)-N-(7-(hydroxyamino)-7-oxoheptyl)pyrimidine-5-carboxamide] was tested. Which “light to heavy ratio (L/H ratio) of acetylated peptide AIFAGYK(ac)R (SEQ ID NO: 300)” value (60S ribosomal protein L35a [15], RPL35A, drug:DMSO) did it give?
The value was 0.86 log 2.

What about the “light to heavy ratio (L/H ratio) of acetylated peptide KIEISQHAK(ac)YTCSFCGK (SEQ ID NO: 351)” value (60S ribosomal protein L37a [36], RPL37A, drug:DMSO) of the same molecule?
The value was 0.00 log 2.

What about the “light to heavy ratio (L/H ratio) of acetylated peptide SIDLK(ac)DK (SEQ ID NO: 572)” value (60 kDa heat shock protein mitochondrial [87], gene HSPD1, inhibitor:DMSO) of the same molecule?
The value was 0.42 log 2.

What about the “light to heavy ratio (L/H ratio) of acetylated peptide VMEHFIK(ac)LYK (SEQ ID NO: 276)” value (78 kDa glucose-regulated protein [268], HSPA5, drug:DMSO) of the same molecule?
Its value is 0.54 log 2.

And the “light to heavy ratio (L/H ratio) of acetylated peptide AK(ac)[…] (SEQ ID NO: 266)” value (78 kDa glucose-regulated protein [326], HSPA5, drug:DMSO)?
Its value is 0.44 log 2.

And the “light to heavy ratio (L/H ratio) of acetylated peptide FK(ac)[…] (SEQ ID NO: 333)” value (116 kDa U5 small nuclear ribonucleoprotein component [790], EFTUD2, drug:DMSO)?
The value was 0.00 log 2.

What about the “L/H ratio of acetylated peptide […](ac)LAR (SEQ ID NO: 19)” value (ACADVL [428], log 2 scale, drug vs DMSO) of the same molecule?
The value was 0.00.

What about the “L/H ratio of acetylated peptide LDHLAEK(ac)FR (SEQ ID NO: 20)” value (ACTN1 [398], log 2 scale, drug vs DMSO) of the same molecule?
Its value is 0.00.

What about the “light to heavy ratio (L/H ratio) of acetylated peptide IFGSNK(ac)WTTEQQQR (SEQ ID NO: 306)” value (ADP-ribosylation factor-like protein 6-interacting protein 1 [96], ARL6IP1, drug:DMSO) of the same molecule?
The value was 1.00 log 2.

And the “light to heavy ratio (L/H ratio) of acetylated peptide TTLLYK(ac)LK (SEQ ID NO: 624)” value (ADP-ribosylation factor-like protein 11 [31], gene ARL11, inhibitor:DMSO)?
Its value is 0.49 log 2.

And the “light to heavy ratio (L/H ratio) of acetylated peptide IFK(ac)SDGLR (SEQ ID NO: 280)” value (ADP/ATP translocase 1 [166], SLC25A4, drug:DMSO)?
Its value is 0.56 log 2.

What about the “light to heavy ratio (L/H ratio) of acetylated peptide ITK(ac)SDGIR (SEQ ID NO: 587)” value (ADP/ATP translocase 3 [166], gene SLC25A6, inhibitor:DMSO) of the same molecule?
Its value is 0.44 log 2.

What about the “L/H ratio of acetylated peptide” value (AK(ac)HDELTYF (SEQ ID NO: 497), Cystatin-B [91], CSTB) of the same molecule?
Its value is −0.88 log 2.

And the “light to heavy ratio (L/H ratio) of acetylated peptide, log 2 scale” value (ALDLNLK(ac)HQILPK (SEQ ID NO: 248), Cytochrome b-c1 complex subunit 7 [72], UQCRB)?
Its value is −0.50.

And the “L/H ratio of acetylated peptide LK(ac)[…] (SEQ ID NO: 21)” value (ANP32B [101], log 2 scale, drug vs DMSO)?
The value was 0.00.

What about the “L/H ratio of acetylated peptide […](ac)SLYGK (SEQ ID NO: 22)” value (ANXA6 [63], log 2 scale, drug vs DMSO) of the same molecule?
The value was 0.00.

What about the “L/H ratio of acetylated peptide MYFDK(ac)[…] (SEQ ID NO: 23)” value (ATAD3A [491], log 2 scale, drug vs DMSO) of the same molecule?
The value was 0.00.

What about the “L/H ratio of acetylated peptide IVEYEK(ac)EMEK (SEQ ID NO: 24)” value (ATP5H [117], log 2 scale, drug vs DMSO) of the same molecule?
Its value is 0.00.

What about the “L/H ratio of acetylated peptide YYNK(ac)YINVK (SEQ ID NO: 12)” value (ATP5J2 [54], log 2 scale, drug vs DMSO) of the same molecule?
The value was 0.54.

And the “light to heavy ratio (L/H ratio) of acetylated peptide QNK(ac)LEQVEK (SEQ ID NO: 271)” value (ATP synthase subunit O mitochondrial [54], ATP50, drug:DMSO)?
Its value is 0.46 log 2.

And the “light to heavy ratio (L/H ratio) of acetylated peptide STVAQLVK(ac)R (SEQ ID NO: 552)” value (ATP synthase subunit alpha mitochondrial [261], gene ATP5A1, inhibitor:DMSO)?
The value was 0.39 log 2.

What about the “light to heavy ratio (L/H ratio) of acetylated peptide ISEQSDAK(ac)LK (SEQ ID NO: 600)” value (ATP synthase subunit alpha mitochondrial [539], gene ATP5A1, inhibitor:DMSO) of the same molecule?
Its value is 0.46 log 2.

And the “light to heavy ratio (L/H ratio) of acetylated peptide […](ac)ETIAK (SEQ ID NO: 307)” value (ATP synthase subunit b mitochondrial [233], ATP5F1, drug:DMSO)?
The value was 1.00 log 2.

What about the “light to heavy ratio (L/H ratio) of acetylated peptide LVPLK(ac)ETIK (SEQ ID NO: 507)” value (ATP synthase subunit beta mitochondrial [485], gene ATP5B, inhibitor:DMSO) of the same molecule?
The value was −0.64 log 2.

What about the “light to heavy ratio (L/H ratio) of acetylated peptide […](ac)QLTVK (SEQ ID NO: 279)” value (ATP synthase subunit g mitochondrial [66], ATP5L, drug:DMSO) of the same molecule?
Its value is 0.56 log 2.

What about the “light to heavy ratio (L/H ratio) of acetylated peptide FEDPK(ac)FEVIEKPQA (SEQ ID NO: 325)” value (ATP synthase-coupling factor 6 mitochondrial [99], ATP5J, drug:DMSO) of the same molecule?
The value was 0.00 log 2.

What about the “light to heavy ratio (L/H ratio) of acetylated peptide SAQEAYK(ac)SYIR (SEQ ID NO: 502)” value (ATP-dependent RNA helicase DDX18 [584], gene DDX18, inhibitor:DMSO) of the same molecule?
The value was −0.74 log 2.

And the “light to heavy ratio (L/H ratio) of acetylated peptide MQK(ac)[…] (SEQ ID NO: 526)” value (Actin aortic smooth muscle [317], gene ACTA2, inhibitor:DMSO)?
The value was −0.44 log 2.

And the “light to heavy ratio (L/H ratio) of acetylated peptide AFAK(ac)ELFLGK (SEQ ID NO: 627)” value (Acyl-CoA dehydrogenase family member 9 mitochondrial [41], gene ACAD9, inhibitor:DMSO)?
The value was 0.49 log 2.

And the “light to heavy ratio (L/H ratio) of acetylated peptide YSAK(ac)DYFFK (SEQ ID NO: 319)” value (Alpha-soluble NSF attachment protein [203], NAPA, drug:DMSO)?
Its value is 1.00 log 2.

What about the “light to heavy ratio (L/H ratio), log 2 scale, acetylated peptide SELTGK(ac)FEK (SEQ ID NO: 778)” value (Annexin A5 [76], gene ANXA5, drug:DMSO) of the same molecule?
The value was 1.00.

What about the “light to heavy ratio (L/H ratio) of acetylated peptide PAQGAK(ac)YR (SEQ ID NO: 305)” value (Annexin A6 [9], ANXA6, drug:DMSO) of the same molecule?
The value was 1.00 log 2.

And the “light to heavy ratio (L/H ratio) of acetylated peptide TKYEK(ac)SLYSMIK (SEQ ID NO: 270)” value (Annexin A6 [299], ANXA6, drug:DMSO)?
The value was 0.46 log 2.

And the “light to heavy ratio (L/H ratio) of acetylated peptide NDTSGEYK(ac)K (SEQ ID NO: 285)” value (Annexin A6 [314], ANXA6, drug:DMSO)?
The value was 0.61 log 2.

And the “light to heavy ratio (L/H ratio) of acetylated peptide AINEAYK(ac)EDYHK (SEQ ID NO: 282)” value (Annexin A6 [478], ANXA6, drug:DMSO)?
Its value is 0.59 log 2.

And the “light to heavy ratio (L/H ratio) of acetylated peptide NKPLFFADK(ac)LYK (SEQ ID NO: 298)” value (Annexin A6 [607], ANXA6, drug:DMSO)?
Its value is 0.78 log 2.
